Where a name gives a salt, the structure may show the parent alone.
Columns and labels:
[1] = tested on: TEL-VEGFR2-BaF3; assay: Proliferation of TEL-VEGFR2-BaF3 cells, CCK8 cell viability assay; type: cell-based; settings: Mus musculus, 72 hours, stably expressing VEGFR2 kinase
Text: (§1) In this example the following cells were used: […] (purchased from ATCC), mouse P210-BaF3 (stably expressing BCR-ABL mutant activated kinase), mouse P210/T315I-BaF3 (stably expressing BCR-ABL/T315I mutant activated kinase), mouse FLT3-ITD-BaF3 (stably expressing FLT3/ITD mutant activated kinase), mouse TEL-FLT3-BaF3 (stably expressing FLT3 kinase), mouse TEL-cKIT-BaF3 (stably expressing cKIT kinase), mouse BaF3-tel/T670I-cKit (stably expressing cKIT/T670I mutant activated kinase), mouse Tel-VEGFR2-BaF3 (stably expressing VEGFR2 kinase), mouse Tel-PDGFRα-BaF3 (stably expressing PDGFRα kinase), mouse Tel-PDGFRβ-BaF3 (stably expressing PDGFRβ kinase), mouse Tel-RET-BaF3 (stably expressing RET kinase). The above cell lines were all constructed by our laboratory according to the following method: the kinase region sequences of human P210, P210/T315I, FLT3/ITD, FLT3, cKIT, cKIT/T670I, VEGFR2, PDGFRα, PDGFRβ, RET were respectively amplified by PCR, and inserted into MSCV-Puro vectors having N-terminal TEL or TPR fragments (Clontech). The vectors were stably transfected into mouse BaF3 cells by means of retrovirus, and the growth factor IL-3 were removed, eventually obtaining cell lines that depend on transferred protein P210, P210/T315I, FLT3/ITD, FLT3, cKIT, cKIT/T670I, VEGFR2, PDGFRα, PDGFRβ, or RET.
(§2) GI50 (unit: μM) was calculated by quantifying the number of living cells based on quantitative measurement of reductive dehydrogenase in living cells with CCK8 cell viability assay kit (Bestbio, China).

[2] = tested on: TEL-PDGFRα-BaF3; assay: Proliferation of TEL-PDGFRα-BaF3 cells, CCK8 cell viability assay; type: cell-based; settings: Mus musculus, 72 hours, stably expressing PDGFRα kinase
Text: as §1, §2

[3] = tested on: TEL-PDGFRβ-BaF3; assay: Proliferation of TEL-PDGFRβ-BaF3 cells, CCK8 cell viability assay; type: cell-based; settings: Mus musculus, 72 hours, stably expressing PDGFRβ kinase
Text: as §1, §2

[4] = tested on: Tel-cKit/T670I-BaF3; assay: Proliferation of Tel-cKit/T670I-BaF3 cells, CCK8 cell viability assay; type: cell-based; settings: Mus musculus, 72 hours, stably expressing cKIT/T670I
Text: as §1, §2

[5] = tested on: FLT3-ITD-BaF3; assay: Proliferation of FLT3-ITD-BaF3 cells, CCK8 cell viability assay; type: cell-based; settings: Mus musculus, 72 hours, stably expressing FLT3/ITD
Text: as §1, §2

[6] = tested on: Tel-FLT3-BaF3; assay: Proliferation of Tel-FLT3-BaF3 cells, CCK8 cell viability assay; type: cell-based; settings: Mus musculus, 72 hours, stably expressing FLT3 kinase
Text: as §1, §2

[7] = tested on: P210/T315I-BaF3; assay: Proliferation of P210/T315I-BaF3 cells, CCK8 cell viability assay; type: cell-based; settings: Mus musculus, 72 hours, stably expressing BCR-ABL/T315I
Text: as §1, §2

[8] = tested on: Tel-cKit-BaF3; assay: Proliferation of Tel-cKit-BaF3 cells, CCK8 cell viability assay; type: cell-based, mouse; settings: Mus musculus; 72 hours, CCK8; stably expressing cKIT kinase
Text: as §1, §2

[9] = tested on: BaF3; assay: Proliferation of BaF3 cells, CCK8 cell viability assay; type: cell-based; settings: Mus musculus, 72 hours
Text: as §1, §2

[10] = tested on: P210-BaF3; assay: Proliferation of P210-BaF3 cells, CCK8 cell viability assay; type: cell-based; settings: Mus musculus, 72 hours, stably expressing BCR-ABL mutant activated kinase
Text: as §1, §2

[11] = tested on: Tel-RET-BaF3; assay: Proliferation of Tel-RET-BaF3 cells, CCK8 cell viability assay; type: cell-based; settings: Mus musculus, 72 hours, stably expressing RET kinase
Text: as §1, §2

Row | SMILES | GI50 [1] [nM] | GI50 [2] [nM] | GI50 [3] [nM] | GI50 [4] [nM] | GI50 [5] [nM] | GI50 [6] [nM] | GI50 [7] [nM] | GI50 [8] [nM] | GI50 [9] [nM] | GI50 [10] [nM] | GI50 [11] [nM]
1 | Cc1ccc(NC(=O)Nc2ccc(Oc3cc(N4CCNC[C@@H]4C)ncn3)cc2)cc1C(F)(F)F [Example 107, (S)-1-(4-methyl-3-(trifluoromethyl)phenyl)-3-(4-((6-(2-methylpiperazin-1-yl)pyrimidin-4-yl)oxy)phenyl)urea] | 508 | 34 | 117 | 940 | 150 | 340 | – | 2850 | 8120 | – | 1980
2 | Cc1ccc(NC(=O)Nc2ccc(Oc3cc(N4CCN(C(=O)OC(C)(C)C)C[C@H]4CO)ncn3)cc2)cc1C(F)(F)F [Example 110, (S)-3-(hydroxymethyl)-4-(6-(4-(3-(4-methyl-3-(trifluoromethyl)phenyl)ureido)phenoxy)pyrimidin-4-yl)piperazin-1-tert-butyl Formate] | 4620 | 60 | 270 | 5290 | 182 | 4860 | – | 2250 | > 10000 | – | 6210
3 | COc1cc(CC(=O)Nc2ccc(Oc3cc(NC(C)=O)ncn3)cc2)cc(OC)c1OC [Example 62, N-[4-(6-acetylamino-pyrimidin-4-yloxy)-phenyl]-2-(3,4,5-trimethoxy-phenyl)-acetamide] | 1180 | 45 | 231 | 6580 | 50 | 390 | > 10000 | 810 | > 10000 | > 10000 | –
4 | CC(=O)Nc1cc(Sc2ccc(NC(=O)Cc3ccccc3C(F)(F)F)cc2)ncn1 [Example 67, N-[4-(6-acetylamino-pyrimidin-4-ylsulfanyl)-phenyl]-2-(2-trifluoromethyl-phenyl)-acetamide] | 7820 | 14 | 312 | > 10000 | 291 | 1470 | 9790 | 6170 | > 10000 | 8080 | –
5 | CC(=O)Nc1cc(Oc2ccc(NC(=O)Cc3ccc(C)c(C)c3)cc2)ncn1 [Example 60, N-[4-(6-acetylamino-pyrimidin-4-yloxy)-phenyl]-2-(3,4-dimethyl-phenyl)-acetamide] | 433 | 11 | 26 | 1880 | 14 | 195 | > 10000 | 917 | > 10000 | > 10000 | –
6 | COc1ccc(CC(=O)Nc2ccc(Oc3cc(NC(C)=O)ncn3)cc2)cc1OC [Example 61, N-[4-(6-acetylamino-pyrimidin-4-yloxy)-phenyl]-2-(3,4-dimethoxy-phenyl)-acetamide] | 1780 | 74 | 233 | > 10000 | 63 | 1390 | 9770 | 4890 | 5710 | 5610 | –
7 | CC(=O)Nc1cc(Oc2ccc(NC(=O)C(O)c3ccccc3F)cc2)ncn1 (stereo not drawn) [Example 63, N-[4-(6-acetylamino-pyrimidin-4-yloxy)-phenyl]-2-(2-fluoro-phenyl)-2-hydroxy-acetamide] | 3430 | 476 | 5750 | > 10000 | 325 | 4680 | > 10000 | > 10000 | > 10000 | > 10000 | –
8 | CC(=O)Nc1cc(Oc2ccc(NC(=O)Cc3ccc(C(C)(C)C)cc3)cc2)ncn1 [Example 65, N-[4-(6-acetylamino-pyrimidin-4-yloxy)-phenyl]-2-(4-tert-butyl-phenyl)-acetamide] | 277 | 12 | 84 | 1070 | 24 | 612 | > 10000 | 376 | > 10000 | > 10000 | –
9 | CC(C)(C)C(=O)Nc1cc(Oc2ccc(NC(=O)Cc3ccc(C(F)(F)F)cc3)cc2)ncn1 [Example 52, 2,2-dimethyl-N-(6-{4-[2-(4-trifluoromethyl-phenyl)-acetylamino]-phenoxy}-pyrimidin-4-yl)-propanamide] | 3420 | 33 | 92 | 5680 | 374 | 3000 | > 10000 | 2260 | > 10000 | > 10000 | –

Now from value to compound:

Row | GI50 [1] [nM] | GI50 [2] [nM] | GI50 [3] [nM] | GI50 [4] [nM] | GI50 [5] [nM] | GI50 [6] [nM] | GI50 [7] [nM] | GI50 [8] [nM] | GI50 [9] [nM] | GI50 [10] [nM] | GI50 [11] [nM] | SMILES
10 | 9670 | 7 | 8 | 1840 | 54 | 162 | > 10000 | 736 | > 10000 | > 10000 | – | Cc1ccc(NC(=O)Nc2ccc(Oc3cc(NCC(N)=O)ncn3)cc2)cc1C(F)(F)F [Example 142, 2-(6-{4-[3-(4-methyl-3-trifluoromethyl-phenyl)-ureido]-phenoxy}-pyrimidin-4-ylamino)-acetamide]
11 | 8910 | 319 | 34 | 9980 | 432 | 1000 | 9800 | > 10000 | > 10000 | > 10000 | – | CCC(=O)NCCNc1cc(Nc2ccc(CC(=O)Nc3ccc(C)c(C(F)(F)F)c3)cc2)ncn1 [Example 139, N-[2-(6-{4-[(4-methyl-3-trifluoromethyl-phenylcarbamoyl)-methyl]-phenylamino}-pyrimidin-4-ylamino)-ethyl]-propanamide]
12 | 98 | 16 | 324 | 7820 | 9 | 11 | – | 970 | > 10000 | – | 3880 | CN1CCN(Cc2ccc(NC(=O)Nc3ccc(Oc4cc(NCCN)ncn4)cc3)cc2C(F)(F)F)CC1 [Example 108, 1-{4-[6-(2-amino-ethylamino)-pyrimidin-4-yloxy]-phenyl}-3-[4-(4-methyl-piperazin-1-ylmethyl)-3-trifluoromethyl-phenyl]-urea]
13 | 149 | 11 | 34 | 323 | 12 | 40 | 9930 | 465 | > 10000 | > 10000 | – | Cc1ccc(NC(=O)Cc2ccc(Oc3cc(NCCN)ncn3)cc2)cc1C(F)(F)F [Example 137, 2-(4-((6-((2-aminoethyl)amino)pyrimidin-4-yl)oxy)phenyl)-N-(4-methyl-3-(trifluoromethyl)phenyl)acetamide]
14 | 9670 | 131 | 170 | > 10000 | 377 | 1110 | 9610 | > 10000 | > 10000 | > 10000 | – | C=CC(=O)NCCNc1cc(Nc2ccc(CC(=O)Nc3ccc(C)c(C(F)(F)F)c3)cc2)ncn1 [Example 140, N-[2-(6-{4-[(4-methyl-3-trifluoromethyl-phenylcarbamoyl)-methyl]-phenylamino}-pyrimidin-4-ylamino)-ethyl]-acrylamide]
15 | 711 | 17 | 79 | 377 | 14 | 34 | > 10000 | 2600 | > 10000 | > 10000 | – | Cc1ccc(NC(=O)Cc2ccc(Nc3cc(NCCN)ncn3)cc2)cc1C(F)(F)F [Example 138, 2-{4-[6-(2-amino-ethylamino)-pyrimidin-4-ylamino]-phenyl}-N-(4-methyl-3-trifluoromethyl-phenyl)-acetamide]

Reference: patent US11602534B2, “Pyrimidine derivative kinase inhibitors” (HEFEI INSTITUTES OF PHYSICAL SCIENCE, CHINESE ACADEMY OF …, priority 2017, dated 2023)
